Counter-ions that a name gives are not always drawn. Like-named read-outs stand apart in the source and are kept apart here.
How the values were obtained:
[1] = system: C33A cervical carcinoma cells; assay: cells; type: cell-based; details: Homo sapiens, C-33-A, read-out: IC50 (μM) C33A, Effect on Cancer Cells Viability
From the text: (§1) […]. […] […]. The total dimethyl sulfoxide on the cells was 1%. […] […].
(§2) As depicted in Table 4, these compounds were efficient in decreasing cellular ATP levels in HI 299 and C33A cancer cell lines. Nevertheless, these compounds are believed to have utility in the in vivo methods of the invention, i.e., treatment and prevention of cancer and viral infections, respectively. It should be noted that, although this cell-based assay is believed to be indicative of anti-oncogenic activity in vivo, it is not the only useful assay for evaluating the anti-oncogenic activity of Triheterocyclic Compounds of the invention. In addition, the anti-viral and other biological activity of compounds of the invention can be determined and evaluated in other assay systems known to the skilled artisan.

[2] = system: H1299 human non-small cell lung cancer cells; assay: Cell viability by cellular ATP levels (ViaLight), H1299 cells; type: cell-based; details: Homo sapiens
From the text: as §1, §2

[3] = C33A, cellular ATP levels as described in Example 2
[4] = NCI-H1299, H1299, cellular ATP levels as described in Example 2, read-out: IC50 (μM) H1299, Effect on Cancer Cells Viability
[5] = NCI-H1299, read-out: IC50 (μM) H1299, Effect on Cancer Cells Viability

Structure (SMILES)	IC50 [1, 3] [µM]	IC50 [2, 4] [µM]	IC50 [1] [µM]	IC50 [2, 5] [µM]
CNCc1c(C2=N/C(=C\c3[nH]c(C)cc3C)C(OC)=C2CO)[nH]c2ccccc12 [Compound 10, [5-(3,5-Dimethyl-1H-pyrrol-2-ylmethylene)-4-methoxy-2-(3-methylaminomethyl-1H-indol-2-yl)-5H-pyrrol-3-yl]-methanol]	0.25	0.493	–	–
COC(=O)CCc1c(C)[nH]c(/C=C2\N=C(c3cc4ccccc4[nH]3)C=C2OC)c1C [Compound 63, 3-{5-[5-(1H-Indol-2-yl)-3-methoxy-pyrrol-2-ylidenemethyl]-2,4-dimethyl-1H-pyrrol-3-yI}-propionic acid methyl ester]	–	–	0.548	0.753
COC1=CC(c2cc3cc(OC)c(OC)cc3n2C(=O)OC(C)(C)C)=N/C1=C\c1[nH]c(C)cc1C [Compound 5, 2-[5-(3,5-Dimethyl-1H-pyrrol-2-ylmethylene)-4-methoxy-5H-pyrrol-2-yl]-5,6-dimethoxy-indole-1-carboxylic acid tert-butyl ester]	2.24	2.26	–	–
COC1=CC(c2cc3ccccc3n2COC(=O)C(C)(C)C)=N/C1=C\c1[nH]c(C)cc1C [Compound 64, 2,2-Dimethyl-propionic acid 2-[5-(3,5-dimethyl-1H-pyrrol-2-ylmethylene)-4-methoxy-5H-pyrrol-2-yl]-indol-1-ylmethyl ester]	14.2	13.3	–	–
COC1=CC(c2cc3ccccc3n2CCO)=N/C1=C\c1[nH]c(C)cc1C [Compound 40, 2-{2-[5-(3,5-Dimethyl-1H-pyrrol-2-ylmethylene)-4-methoxy-5H-pyrrol-2-yl]-indol-1-yl}-ethanol]	7.17	8.46	–	–
CCOC(=O)COC1=CC(c2cc3ccccc3[nH]2)=N/C1=C\c1[nH]c(C)cc1C [Compound 53, [2-(3,5-Dimethyl-1H-pyrrol-2-ylmethylene)-5-(1H-indol-2-yl)-2H-pyrrol-3-yloxy]-acetic acid ethyl ester]	–	–	10.2	10.6
COC1=CC(c2cc3ccccc3[nH]2)=N/C1=C\c1[nH]ccc1OC [Compound 3, 2-[4-Methoxy-5-(3-methoxy-1H-pyrrol-2-ylmethylene)-5H-pyrrol-2-yl]-1H-indole]	0.52	0.3	–	–
COC1=CC(c2[nH]c3ccccc3c2CO)=N/C1=C\c1[nH]c(C)cc1C [Compound 37]	1.29	1.35	–	–
COc1cccc(COC2=CC(c3cc4ccccc4[nH]3)=N/C2=C\c2[nH]c(C)cc2C)c1 [Compound 51, 2-[5-(3,5-Dimethyl-1H-pyrrol-2-ylmethylene)-4-(3-methoxy-benzyloxy)-5H-pyrrol-2-yl]-1H-indole]	0.165	0.202	–	–
COC1=CC(c2cc3cc(Br)ccc3[nH]2)=N/C1=C\c1[nH]c(C)cc1C [Compound 7, 5-Bromo-2-[5-(3,5-dimethyl-1H-pyrrol-2-ylmethylene)-4-methoxy-5H-pyrrol-2-yl]-1H-indole]	2.23	1.73	–	–
COC1=CC(c2cc3c(OC(=O)OC(C)(C)C)cccc3[nH]2)=N/C1=C\c1[nH]c(C)cc1C [Compound 36, Carbonic acid tert-butyl ester 2-[5-(3,5-dimethyl-1H-pyrrol-2-ylmethylene)-4-methoxy-5H-pyrrol-2-yl]-1H-indol-4-yl ester]	0.583	0.494	–	–
COC1=CC(c2cc3ccccc3[nH]2)=N/C1=C\c1[nH]c(C)c(I)c1C [Compound 2, 2-[5-(4-Iodo-3,5-dimethyl-1H-pyrrol-2-ylmethylene)-4-methoxy-5H-pyrrol-2-yl]-1H-indole]	0.65	0.53	–	–
COC1=CC(c2cc3ccccc3n2C(=O)c2ccc(Br)cc2)=N/C1=C/c1[nH]c(C)cc1C [Compound 55, (4-Bromo-phenyl)-{2-[5-(3,5-dimethyl-1H-pyrrol-2-ylmethylene)-4-methoxy-5H-pyrrol-2-yl]-indol-1-yl}-methanone]	0.173	0.173	–	–
COC1=CC(c2cc3ccccc3n2CCOS(=O)(=O)O)=N/C1=C\c1[nH]c(C)cc1C [Compound 65, Sodium salt of Sulfuric acid mono-(2-{2-[5-(3,5-dimethyl-1H-pyrrol-2-ylmethylene)-4-methoxy-5H-pyrrol-2-yl]-indol-1-yl}-ethyl) ester]	5.97	7.89	–	–
COC1=CC(c2cc3ccccc3n2C(=O)Nc2ccc(OCc3ccccc3)cc2)=N/C1=C\c1[nH]c(C)cc1C [Compound 54, 2-[5-(3,5-Dimethyl-1H-pyrrol-2-ylmethylene)-4-methoxy-5H-pyrrol-2-yl]-indole-1-carboxylic acid (4-benzyloxy-phenyl)-amide]	0.145	0.187	–	–
COC1=CC(c2cc3ccccc3n2C(=O)OC(C)(C)C)=N/C1=C\c1[nH]c(C)cc1C [Compound 49, 2-[5-(3,5-Dimethyl-1H-pyrrol-2-ylmethylene)-4-methoxy-5H-pyrrol-2-yl]-indole-1-carboxylic acid tert-butyl ester]	2	3	–	–
Cc1cc(C)c(/C=C2\N=C(c3cc4ccc(Cl)cc4[nH]3)C=C2OC(C)C)[nH]1 [Compound 46, 6-Chloro-2-[5-(3,5-dimethyl-1H-pyrrol-2-ylmethylene)-4-isopropoxy-5H-pyrrol-2-yl]-1H-indole]	0.261	0.245	–	–
COC1=CC(c2[nH]c3ccccc3c2I)=N/C1=C\c1[nH]c(C)c(I)c1C [Compound 17, 3-Iodo-2-[5-(4-iodo-3,5-dimethyl-1H-pyrrol-2-ylmethylene)-4-methoxy-5H-pyrrol-2-yl]-1H-indole]	5.69	5.37	–	–
COC1=CC(c2cc3ccccc3n2C(=O)c2ccccc2)=N/C1=C/c1[nH]c(C)cc1C [Compound 43, {2-[5-(3,5-Dimethyl-1H-pyrrol-2-ylmethylene)-4-methoxy-5H-pyrrol-2-yl]-indol-1-yl}-phenyl-methanone]	0.196	0.298	–	–
COC1=CC(c2cc3ccccc3n2C(=O)Nc2ccc(N(C)C)cc2)=N/C1=C\c1[nH]c(C)cc1C [Compound 52, 2-[5-(3,5-Dimethyl-1H-pyrrol-2-ylmethylene)-4-methoxy-5H-pyrrol-2-yl]-indole-1-carboxylic acid (4-dimethylamino-phenyl)-amide]	1.11	1.04	–	–
COC1=CC(c2cc3cc(OC)ccc3[nH]2)=N/C1=C\c1[nH]c(C)cc1C [Compound 15, 2-[5-(3,5-Dimethyl-1H-pyrrol-2-ylmethylene)-4-methoxy-5H-pyrrol-2-yl]-5-methoxy-1H-indole]	1.44	0.935	–	–
COC1=C(CO)C(c2[nH]c3ccccc3c2CNCCO)=N/C1=C\c1[nH]c(C)cc1C [Compound 9, 2-({2-[5-(3,5-Dimethyl-1H-pyrrol-2-ylmethylene)-3-hydroxymethyl-4-methoxy-5H-pyrrol-2-yl]-1H-indol-3-ylmethyl}-amino)-ethanol]	2.21	4.43	–	–
COC1=CC(c2[nH]c3ccccc3c2CN2CCN(c3ccccc3)CC2)=N/C1=C\c1[nH]c(C)cc1C [Compound 8, 2-[5-(3,5-Dimethyl-1H-pyrrol-2-ylmethylene)-4-methoxy-5H-pyrrol-2-yl]-3-(4-phenyl-piperazin-1-ylmethyl)-1H-indole]	1.76	1.88	–	–
COC1=CC(c2cc3ccccc3n2C(=O)C(C)C)=N/C1=C\c1[nH]c(C)cc1C [Compound 35, 1-{2-[5-(3,5-Dimethyl-1H-pyrrol-2-ylmethylene)-4-methoxy-5H-pyrrol-2-yI]-indol-1-yl}-2-methyl-propan-1-one]	0.167	0.197	–	–
COC1=CC(c2[nH]c3ccccc3c2C(=O)c2ccoc2)=N/C1=C\c1[nH]c(C)cc1C [Compound 27, {2-[5-(3,5-Dimethyl-1H-pyrrol-2-ylmethylene)-4-methoxy-5H-pyrrol-2-yl]-1H-indol-3-yl}-furan-3-yl-methanone]	10	15.3	–	–
COC1=CC(c2cc3ccccc3[nH]2)=N/C1=C(\C)c1[nH]c(C)cc1C [Compound 47, 2-{5-[1-(3,5-Dimethyl-1H-pyrrol-2-yl)-ethylidene]-4-methoxy-5H-pyrrol-2-yl)-1H-indole]	8.28	9.65	–	–
Cc1cc(C)c(/C=C2\N=C(c3cc4c(OC(=O)OC(C)(C)C)cccc4[nH]3)C=C2OC(C)C)[nH]1 [Compound 38, Carbonic acid tert-butyl ester 2-[5-(3,5-dimethyl-1H-pyrrol-2-ylmethylene)-4-isopropoxy-5H-pyrrol-2-yl]-1H-indol-4-yl ester]	0.226	0.342	–	–
COC1=CC(c2cc3ccccc3[nH]2)=N/C1=C\c1[nH]c(C)c(CCCO)c1C [Compound 41, 3-{5-[5-(1H-indol-2-yl)-3-methoxy-pyrrol-2-ylidenemethyl]-2,4-dimethyl-1H-pyrrol-3-yl}-propan-1-ol]	1.79	3.35	–	–
Cc1cc(C)c(/C=C2\N=C(c3cc4ccccc4[nH]3)C=C2O)[nH]1 [Compound 50, 2-(3,5-Dimethyl-1H-pyrrol-2-ylmethylene)-5-(1H-indol-2-yl)-2H-pyrrol-3-ol]	0.509	1.21	–	–
COC1=C(CO)C(c2[nH]c3ccccc3c2CNC(C)C)=N/C1=C\c1[nH]c(C)cc1C [Compound 11, {5-(3,5-Dimethyl-1H-pyrrol-2-ylmethylene)-2-[3-(isopropylamino-methyl)-1H-indol-2-yl]-4-methoxy-5H-pyrrol-3-yl}-methanol]	0.307	0.983	–	–

From patent publication US20050267073A1, “Triheterocyclic compounds, compositions, and methods for treating cancer or viral diseases” (priority 2004, published 2005)
